Patent US8592407B2, “Pyrrolo[2,1-c][1,4] benzodiazepine derivatives with dithiocarbamate side chains and process for the preparation thereof” (Council of Scientific & Industrial Research, priority 2008, dated 2013)

Legend:
calf thymus DNA (CT-DNA) = assay: Thermal denaturation studies with duplex-form calf thymus DNA; type: binding; conditions: [PBD]:[DNA] 1:5, CT-DNA 100 μM, ligand 20 μM, pH 7.00; for ΔTm after incubation at 37° C. for 0 h: 0 h at 37° C.; for ΔTm after incubation at 37° C. for 18 h: 18 h at 37° C.
Experimental: Compounds have been subjected to thermal denaturation studies with duplex-form calf thymus DNA (CT-DNA) using an modification of a reported procedure (Newman, M. S. Carcinog-compr. Surv. 1976, 1, 203; (b) Hecht, S. S.; Loy, M.; Hoffman, Carcinog-compr. Surv. 1976, 1, 325). Working solutions in aqueous buffer (10 mM NaH2PO4/Na2HPO4, 1 mM Na2EDTA, pH 7.00+0.01) containing CT-DNA (100 μm in phosphate) and the PBD (20 μm) have been prepared by addition of concentrated PBD solutions in DMSO to obtain a fixed [PBD]/[DNA] molar ratio of 1:5. The DNA−PBD solutions have been incubated at 37° C. for 0 and 18 h prior to analysis. Samples have been monitored at 260 nm using a Beckman DU-800 spectrophotometer fitted with high performance temperature controller, and heated at 1° C. min^−1
in the 40-110° C. range. DNA helix[…]coil transition temperatures (Tm) have been obtained from the maxima in the d(A260)/dT derivative plots. Drug-induced alterations in DNA melting behavior are given by: ΔTm=Tm(DNA+PBD)−Tm (DNA alone), where the Tm value for the PBD-free CT-DNA is 69.1±0.01.

Lung A-549 = assay: Preliminary in vitro cytotoxicity on six cell lines
Colon HCT-15 = assay: as above; conditions: unit assumed
Neuroblastoma IMR-32 = assay: as above
Ovary OVCAR-5 = assay: as above
Liver HEP-2 = assay: as above; conditions: unit assumed
Colon 502713 = assay: as above; conditions: concentration (mg/ml) 1 × 10^−5 M
[1] = concentration (mg/ml) 1 × 10^−5 M
[2] = concentration (mg/ml) 1 × 10^−6 M

`COc1cc2c(cc1OCCCCSC(=S)N1CCN(CCCN3C(=O)c4cccc5cccc(c45)C3=O)CC1)N=C[C@@H]1CCCN1C2=O` [Compound 13c, 4-[(11aS)-7-(methyloxy)-5-oxo-2,3,5,11a-tetrahydro-1H-benzo[e]pyrrolo[1,2-a][1,4]diazepin-8-yl]oxybutyl4-[3-(1,3-dioxo-2,3-dihydro-1H-benzo[de]isoquinolin-2-yl)propyl]hexahydro-1-pyrazinecarbodithioate] was tested. Which “ΔTm after incubation at 37° C. for 0 h” value (calf thymus DNA (CT-DNA)) did it give?
The value was 5.0 °C.

And the “ΔTm after incubation at 37° C. for 18 h” value (calf thymus DNA (CT-DNA))?
Its value is 5.0 °C.

With `COc1cc2c(cc1OCCCCCN1CCN(C(=S)SCCC(C#N)(c3ccccc3)c3ccccc3)CC1)N=C[C@@H]1CCCN1C2=O` [Compound 12d, 3-cyano-3,3-diphenylpropyl 4-(5-[(11aS)-7-(methyloxy)-5-oxo-2,3,5,11a-tetrahydro-1H-benzo[e]pyrrolo[1,2-a][1,4]diazepin-8-yl]oxypentyl)hexahydro-1-pyrazinecarbodithioate] as the compound, how does the “ΔTm after incubation at 37° C. for 0 h” value (calf thymus DNA (CT-DNA)) read?
The value was 2.0 °C.

And the “ΔTm after incubation at 37° C. for 18 h” value (calf thymus DNA (CT-DNA))?
Its value is 2.1 °C.

Which “ΔTm after incubation at 37° C. for 0 h” value (calf thymus DNA (CT-DNA)) does the source give for `COc1cc2c(cc1OCCCCCSC(=S)N1CCN(CCCN3C(=O)c4cccc5cccc(c45)C3=O)CC1)N=C[C@@H]1CCCN1C2=O` [Compound 13d, 5-[(11aS)-7-(methyloxy)-5-oxo-2,3,5,11a-tetrahydro-1H-benzo[e]pyrrolo[1,2-a][1,4]diazepin-8-yl]oxypentyl4-[3-(1,3-dioxo-2,3-dihydro-1H-benzo[de]isoquinolin-2-yl)propyl]hexahydro-1-pyrazinecarbodithioate] here?
The value was 4.0 °C.

What about the “ΔTm after incubation at 37° C. for 18 h” value (calf thymus DNA (CT-DNA)) of the same compound?
The value was 4.6 °C.

What does the source list for `COc1cc2c(cc1OCCCCCSC(=S)N1CCN(C)CC1)N=C[C@@H]1CCCN1C2=O` [Compound 14d, 5-[(11aS)-7-(methyloxy)-5-oxo-2,3,5,11a-tetrahydro-1H-benzo[e]pyrrolo[1,2-a][1,4]diazepin-8-yl]oxypentyl4-methylhexahydro-1-pyrazinecarbodithioate]?
ΔTm after incubation at 37° C. for 0 h (calf thymus DNA (CT-DNA)): 6.0 °C; ΔTm after incubation at 37° C. for 18 h (calf thymus DNA (CT-DNA)): 10.9 °C; Preliminary in vitro cytotoxicity data (Lung A-549; [1]): 31; Preliminary in vitro cytotoxicity data (Colon HCT-15; [1]): 50%; Preliminary in vitro cytotoxicity data (Neuroblastoma IMR-32; [1]): 95; Preliminary in vitro cytotoxicity data (Ovary OVCAR-5; [1]): 22; Preliminary in vitro cytotoxicity data (Liver HEP-2; [1]): 66%; Preliminary in vitro cytotoxicity data (Colon 502713): 78

For `COc1cc2c(cc1O)N=CC1CCCN1C2=O` (stereo not shown) [DC-81, reference compound], which “ΔTm after incubation at 37° C. for 0 h” value (calf thymus DNA (CT-DNA)) is on record?
Its value is 0.3 °C.

What about the “ΔTm after incubation at 37° C. for 18 h” value (calf thymus DNA (CT-DNA)) of the same compound?
The value was 0.7 °C.

For `COc1cccc2c1C(=O)c1c(O)c3c(c(O)c1C2=O)C[C@@](O)(C(=O)CO)C[C@@H]3O[C@H]1C[C@H](N)[C@H](O)[C@H](C)O1` [Adriamycin, reference compound], which “Preliminary in vitro cytotoxicity data” value (Lung A-549; [2]) is on record?
Its value is 61.

And the Preliminary in vitro cytotoxicity data (Colon HCT-15; [2])?
The Preliminary in vitro cytotoxicity data was 58%.

What about the “Preliminary in vitro cytotoxicity data” value (Neuroblastoma IMR-32; [2]) of the same compound?
The value was 80.

What about the “Preliminary in vitro cytotoxicity data” value (Ovary OVCAR-5; [2]) of the same compound?
Its value is 30.

What about the Preliminary in vitro cytotoxicity data (Liver HEP-2; [2]) of the same compound?
Its Preliminary in vitro cytotoxicity data is 31%.

For `COc1cc2c(cc1OCCCSC(=S)N1CCN(CCCN3C(=O)c4cccc5cccc(c45)C3=O)CC1)N=C[C@@H]1CCCN1C2=O` [Compound 13b, 3-[(11aS)-7-(methyloxy)-5-oxo-2,3,5,11a-tetrahydro-1H-benzo[e]pyrrolo[1,2-a][1,4]diazepin-8-yl]oxypropyl4-[3-(1,3-dioxo-2,3-dihydro-1H-benzo[de]isoquinolin-2-yl)propyl]hexahydro-1-pyrazinecarbodithioate], which “ΔTm after incubation at 37° C. for 0 h” value (calf thymus DNA (CT-DNA)) is on record?
The value was 3.1 °C.

And the “ΔTm after incubation at 37° C. for 18 h” value (calf thymus DNA (CT-DNA))?
The value was 3.3 °C.

Which “ΔTm after incubation at 37° C. for 0 h” value (calf thymus DNA (CT-DNA)) does the source give for `COc1cc2c(cc1OCCCCSC(=S)N1CCN(C)CC1)N=C[C@@H]1CCCN1C2=O` [Compound 14c, 4-[(11aS)-7-(methyloxy)-5-oxo-2,3,5,11a-tetrahydro-1H-benzo[e]pyrrolo[1,2-a][1,4]diazepin-8-yl]oxybutyl4-methylhexahydro-1-pyrazinecarbodithioate] here?
The value was 2.1 °C.

What about the “ΔTm after incubation at 37° C. for 18 h” value (calf thymus DNA (CT-DNA)) of the same compound?
Its value is 2.2 °C.

What about the “Preliminary in vitro cytotoxicity data” value (Lung A-549; [1]) of the same compound?
Its value is 50.

And the Preliminary in vitro cytotoxicity data (Colon HCT-15; [1])?
The Preliminary in vitro cytotoxicity data was 82%.

What about the “Preliminary in vitro cytotoxicity data” value (Neuroblastoma IMR-32; [1]) of the same compound?
Its value is 86.

What about the “Preliminary in vitro cytotoxicity data” value (Ovary OVCAR-5; [1]) of the same compound?
Its value is 36.

And the Preliminary in vitro cytotoxicity data (Liver HEP-2; [1])?
Its Preliminary in vitro cytotoxicity data is 66%.

What about the “Preliminary in vitro cytotoxicity data” value (Colon 502713) of the same compound?
Its value is 75.
